PubChem BioAssay (NCI)
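Cultured in 96-well plates, cells were exposed to test compound for 48 hours across five concentrations. GI50 marks 50% less growth. TGI marks complete inhibition of growth.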

Legend:
Assay in all cases: growth of human tumour cells (NCI), 48 h
ACHN renal = system: ACHN renal
K-562 leukemia = system: K-562 leukemia
LOX IMVI melanoma = system: LOX IMVI melanoma
M14 melanoma = system: M14 melanoma
NCI-H522 lung = system: NCI-H522 lung
OVCAR-5 ovarian = system: OVCAR-5 ovarian
OVCAR-4 ovarian = system: OVCAR-4 ovarian
SF-295 CNS = system: SF-295 CNS
SNB-19 CNS = system: SNB-19 CNS
BT-549 breast = system: BT-549 breast

Row | SMILES | TGI (ACHN renal) | TGI (K-562 leukemia) | TGI (LOX IMVI melanoma) | TGI (M14 melanoma) | TGI (NCI-H522 lung) | TGI (OVCAR-5 ovarian) | TGI (OVCAR-4 ovarian) | TGI (SF-295 CNS) | TGI (SNB-19 CNS) | GI50 (K-562 leukemia) | GI50 (LOX IMVI melanoma) | GI50 (NCI-H522 lung) | GI50 (OVCAR-4 ovarian) | GI50 (OVCAR-5 ovarian) | GI50 (SF-295 CNS) | GI50 (SNB-19 CNS) | TGI (BT-549 breast) | GI50 (ACHN renal) | GI50 (M14 melanoma)
1 | Cn1c(=O)c2[nH]cnc2n(C)c1=O | > 100 µM | > 100 µM | > 100 µM | > 100 µM | > 100 µM | > 100 µM |  |  |  |  |  |  |  |  |  |  |  |  | 
2 | O=C(NNc1ccc([N+](=O)[O-])cc1)C1OC(CO)C(O)C1O (stereo unspecified) | > 100 µM | > 100 µM | > 100 µM | > 100 µM |  | > 100 µM | > 100 µM | > 100 µM | > 100 µM |  |  |  |  |  |  |  |  |  | 
3 | Nc1ncc(Cc2nn3c(COc4ccc(Cl)cc4)nnc3s2)s1 | 14 µM | > 100 µM |  | > 100 µM | > 100 µM | > 100 µM | > 100 µM | > 100 µM | > 100 µM |  |  |  |  |  |  |  |  |  | 
4 | CC(=O)Nc1oc(C)nc1C#N | > 100 µM | > 100 µM | > 100 µM | > 100 µM |  | > 100 µM | > 100 µM |  | > 100 µM |  |  |  |  |  |  |  |  |  | 
5 | O/N=C1/CCCCC1NO (stereo unspecified) | > 100 µM | > 100 µM | > 100 µM | > 100 µM |  | > 100 µM | > 100 µM | > 100 µM | > 100 µM |  |  |  |  |  |  |  |  |  | 
6 | O=C1C(=O)C(CCCO)(CCCO)CCCCCCCCC1(CCCO)CCCO | > 100 µM | 69.6 µM | > 100 µM | > 100 µM | > 100 µM | > 100 µM | > 100 µM | > 100 µM | > 100 µM |  |  |  |  |  |  |  |  |  | 
7 | CC(=O)Oc1ccc(-c2c(OC(C)=O)c(OC(C)=O)c(-c3ccc(OC(C)=O)c(OC(C)=O)c3)c(OC(C)=O)c2OC(C)=O)cc1 | 30.8 µM | 43.5 µM | 31.8 µM | 33.7 µM | 18.4 µM | 25 µM | 31.8 µM | 21.3 µM | 32.6 µM |  |  |  |  |  |  |  |  |  | 
8 | NCCCN1CCN(CCCNc2ccc3ncn4c5ccccc5c(=O)c2c34)CC1 | 13.9 µM | > 25 µM | 4.07 µM | 8.05 µM | 1.52 µM | 19.3 µM | 2.89 µM | 15.7 µM | 4.46 µM |  |  |  |  |  |  |  |  |  | 
9 | C=C1C(=O)OC2C1CC1OC2C(C)CCC/C(C)=C\CCC1(C)O (stereo unspecified) |  | 48.5 µM | 13.8 µM |  | 26.2 µM | 124 µM | 56.6 µM | 85.2 µM | 103 µM |  |  |  |  |  |  |  |  |  | 
10 | COc1ccc(/C(Cl)=C(\C=O)c2ccc(Cl)cc2)cc1 | 21.2 µM | > 100 µM | 23.8 µM | > 100 µM | 5.89 µM | > 100 µM | > 100 µM | 19.1 µM | 87.4 µM |  |  |  |  |  |  |  |  |  | 
11 | Clc1cccc(Cl)c1C1ON=C(c2ccccc2)N1C12CC3CC(CC(C3)C1)C2 (stereo unspecified) | > 100 µM | 44.7 µM | 63.7 µM | > 100 µM | > 100 µM | > 100 µM | > 100 µM | > 100 µM | > 100 µM |  |  |  |  |  |  |  |  |  | 
12 | O=C(c1ccccc1)c1ccc2c(c1)N=C(c1ccc(Cl)c(Cl)c1)CC(c1ccc3ccccc3c1)N2 (stereo unspecified) | > 100 µM | > 100 µM | > 100 µM | > 100 µM | > 100 µM | > 100 µM | > 100 µM | > 100 µM | > 100 µM |  |  |  |  |  |  |  |  |  | 
13 | O.O=[Se](=O)(O)O.[NH-]C1CCCCC1[NH-].[Pt+2] (stereo unspecified) |  | > 100 µM | > 74.7 µM |  | > 59.4 µM | > 100 µM | > 100 µM | > 92.1 µM | > 100 µM | 5.35 µM | 8.21 µM | 13.7 µM | 11.6 µM | 26.7 µM | 15.4 µM | > 50.7 µM |  |  | 
14 | CC(=O)N/N=C1\NN(C(C)=O)C2(S1)C(=O)Nc1ccccc12 (stereo unspecified) | > 100 µM | > 100 µM | > 100 µM | > 100 µM | > 100 µM | > 100 µM | > 100 µM |  | > 100 µM |  |  |  |  |  |  |  |  |  | 
15 | CN(CCc1ccccn1)C(=S)N/N=C/c1ccccn1 | 1.41 µM | 0.0493 µM | 13.6 µM | 2.34 µM | 0.29 µM | 44.6 µM | 21.4 µM | > 43.5 µM | > 100 µM |  |  |  |  |  |  |  |  |  | 
16 | C#Cc1ccccc1C(=O)OC | > 100 µM | > 100 µM | > 100 µM | > 100 µM | > 100 µM | > 100 µM | > 100 µM | > 100 µM | > 100 µM |  |  |  |  |  |  |  |  |  | 
17 | CCOC(=O)Cn1c(C)nc2nn(Cc3ccccc3)cc2c1=O | > 100 µM | > 100 µM |  | > 100 µM |  | > 100 µM |  | > 100 µM | > 100 µM |  |  |  |  |  |  |  | > 100 µM |  | 
18 | CC1=NN(C(=O)Cc2ccccc2)C(=O)/C1=C\c1cccc(O)c1 | > 100 µM | > 100 µM | > 100 µM | > 100 µM | > 100 µM | > 100 µM | > 100 µM | > 100 µM | > 100 µM |  |  |  |  |  |  |  |  |  | 
19 | Brc1ccc2[nH]cc(-c3nc(-c4c[nH]c5ccncc45)cs3)c2c1 | 3.16 µM | 3.38 µM |  | 3.42 µM |  | 3.21 µM |  | 3.14 µM |  | 0.98 µM |  |  |  | 1.79 µM | 1.71 µM |  |  | 1.77 µM | 1.83 µM
20 | Cc1ccc(NC(=O)NC23CC4CC(CC(F)(C4)C2)C3)cc1 | > 100 µM | > 100 µM | > 100 µM | > 100 µM | > 100 µM | > 100 µM |  |  | > 100 µM |  |  |  |  |  |  |  |  |  | 
